The values below are quoted from earlier work in patent US4873092A, “Slow-releasing preparation” (Murata Kikai Kabushiki Kaisha, priority 1987, dated 1989).

The conditions of the series: mouce.

Consider `COc1cccc2c1C(=O)c1c(O)c3c(c(O)c1C2=O)C[C@@](O)(C(=O)CO)C[C@@H]3O[C@H]1C[C@H](N)[C@H](O)[C@H](C)O1` [Adriamycin], for which the LD50 value is on record as 9.8 mg/kg.
